Results as given in patent US20210267944A1 (BioXcel Therapeutics, Inc., priority 2018, published 2021).
Where a name gives a salt, the structure may show the parent alone. Read-outs that look alike come from different tables or passages of the source.

System: subjects suffering from opiate withdrawal symptoms
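Also: inpatients in opioid withdrawal given intravenous infusion titrated upward every 30 min (up to 0.1 mcg/kg/hr steps) until COWS total, a clinician-rated 11-item withdrawal scale, fell by half.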

## Cc1cccc([C@H](C)c2cnc[nH]2)c1C [dexmedetomidine hydrochloride]
Day 1, Patient OP-7 (Treatment), 30 min. post Infusion
  COW score: 0
Day 1, Patient OP-9 (Treatment), 00:00 Hr
  COW score: 16
Day 1, Patient OP-9 (Treatment), 00:15 Hr
  COW score: 13
Day 1, Patient OP-9 (Treatment), 00:30 Hr
  COW score: 10
Day 1, Patient OP-9 (Treatment), 00:45 Hr
  COW score: 9
Day 1, Patient OP-9 (Treatment), 01:00 Hr
  COW score: 10
Day 1, Patient OP-9 (Treatment), 01:15 Hr
  COW score: 6
Day 1, Patient OP-9 (Treatment), 30 min. post Infusion
  COW score: 9
Day 1, Patient OP-10 (Treatment), 00:00 Hr
  COW score: 10
Day 1, Patient OP-10 (Treatment), 00:15 Hr
  COW score: 7
Day 1, Patient OP-10 (Treatment), 00:30 Hr
  COW score: 1
Day 1, Patient OP-10 (Treatment), 30 min. post Infusion
  COW score: 3
Day 1, Patient OP-11 (Treatment), 00:00 Hr
  COW score: 16
Day 1, Patient OP-11 (Treatment), 00:15 Hr
  COW score: 16
Day 1, Patient OP-11 (Treatment), 00:45 Hr
  COW score: 13
Day 1, Patient OP-11 (Treatment), 01:00 Hr
  COW score: 14
Day 1, Patient OP-11 (Treatment), 01:15 Hr
  COW score: 10
Day 1, Patient OP-11 (Treatment), 01:30 Hr
  COW score: 8
Day 1, Patient OP-11 (Treatment), 30 min. post Infusion
  COW score: 8
Day 1, Patient OP-12 (Treatment), 00:00 Hr
  COW score: 16
Day 1, Patient OP-12 (Treatment), 00:15 Hr
  COW score: 12
Day 1, Patient OP-12 (Treatment), 00:30 Hr
  COW score: 9
Day 1, Patient OP-12 (Treatment), 00:45 Hr
  COW score: 9
Day 1, Patient OP-12 (Treatment), 01:00 Hr
  COW score: 10
Day 1, Patient OP-12 (Treatment), 01:15 Hr
  COW score: 9
Day 1, Patient OP-12 (Treatment), 01:30 Hr
  COW score: 4
Day 1, Patient OP-12 (Treatment), 30 min. post Infusion
  COW score: 5
Day 1, Patient OP-15 (Treatment), 00:00 Hr
  COW score: 13
Day 1, Patient OP-15 (Treatment), 00:15 Hr
  COW score: 8
Day 1, Patient OP-15 (Treatment), 00:30 Hr
  COW score: 4
Day 1, Patient OP-15 (Treatment), 30 min. post Infusion
  COW score: 4
Day 1, Patient OP-17 (Treatment), 00:00 Hr
  COW score: 10
Day 1, Patient OP-17 (Treatment), 00:15 Hr
  COW score: 11
Day 1, Patient OP-17 (Treatment), 00:30 Hr
  COW score: 9
Day 1, Patient OP-17 (Treatment), 00:45 Hr
  COW score: 8
Day 1, Patient OP-17 (Treatment), 01:00 Hr
  COW score: 4
Day 1, Patient OP-17 (Treatment), 30 min. post Infusion
  COW score: 5
Day 2, Patient OP-1 (Treatment), 00:00 Hr
  COW score: 9
Day 2, Patient OP-1 (Treatment), 00:15 Hr
  COW score: 8
Day 2, Patient OP-1 (Treatment), 00:30 Hr
  COW score: 2
Day 2, Patient OP-1 (Treatment), last cell, 30 min. post Infusion
  COW score: 0
Day 2, Patient OP-2 (Treatment), 00:00 Hr
  COW score: 14
Day 2, Patient OP-2 (Treatment), 00:15 Hr
  COW score: 11
Day 2, Patient OP-2 (Treatment), 00:30 Hr
  COW score: 12
Day 2, Patient OP-2 (Treatment), 00:45 Hr
  COW score: 10
Day 2, Patient OP-2 (Treatment), 01:00 Hr
  COW score: 9
Day 2, Patient OP-2 (Treatment), 01:15 Hr
  COW score: 7
Day 2, Patient OP-2 (Treatment), last cell, 30 min. post Infusion
  COW score: 4
Day 2, Patient OP-3 (Treatment), 00:00 Hr
  COW score: 10
Day 2, Patient OP-3 (Treatment), 00:15 Hr
  COW score: 8
Day 2, Patient OP-3 (Treatment), 00:30 Hr
  COW score: 6
Day 2, Patient OP-3 (Treatment), 00:45 Hr
  COW score: 4
Day 2, Patient OP-3 (Treatment), last cell, 30 min. post Infusion
  COW score: 4
Day 2, Patient OP-9 (Treatment), 00:30 Hr
  COW score: 14
Day 2, Patient OP-9 (Treatment), 00:45 Hr
  COW score: 14
Day 2, Patient OP-9 (Treatment), 01:00 Hr
  COW score: 14
Day 2, Patient OP-9 (Treatment), 01:15 Hr
  COW score: 12
Day 2, Patient OP-9 (Treatment), 01:30 Hr
  COW score: 12
Day 2, Patient OP-9 (Treatment), 01:45 Hr
  COW score: 12
Day 2, Patient OP-9 (Treatment), 02:00 Hr
  COW score: 9
Day 2, Patient OP-9 (Treatment), last cell, 30 min. post Infusion
  COW score: 9
Day 2, Patient OP-17 (Treatment), 00:00 Hr
  COW score: 14
Day 2, Patient OP-17 (Treatment), 00:15 Hr
  COW score: 14
Day 2, Patient OP-17 (Treatment), 00:30 Hr
  COW score: 12
Day 2, Patient OP-17 (Treatment), 00:45 Hr
  COW score: 11
Day 2, Patient OP-17 (Treatment), 01:00 Hr
  COW score: 5
Day 2, Patient OP-17 (Treatment), last cell, 30 min. post Infusion
  COW score: 5
Opioid withdrawal Study
  Efficacy (Primary/secondary end points): subjects with COWS greater than or equal to 50% reduction: 11/11 COWS
Opioid withdrawal Study, continuous infusion
  Range of efficacious dose of IV dexmedetomidine hydrochloride: 0.2 to 0.7 µg/kg/h
Opioid withdrawal
  effect on physiological symptoms of opioid withdrawal (COWS): effectively mitigated the physiological symptoms of opioid withdrawal
Opioid withdrawal, Day 1
  subjects who achieved 50% reduction in COW score: 10 out of 10
Opioid withdrawal, Day 1, n=10
  optimal dose at 50% of the COW score achieved, Max: 0.4 µg/kg/h
  optimal dose at 50% of the COW score achieved, Mean ± Sd (mean infusion rate): 0.29 µg/kg/h
  optimal dose at 50% of the COW score achieved, Median: 0.3 µg/kg/h
  optimal dose at 50% of the COW score achieved, Min: 0.2 µg/kg/h
Opioid withdrawal, Day 1, n=10, listed as Test
  optimal dose at 50% of the COW score achieved, Mean ± Sd (mean infusion rate): 0.29 ± 0.08 µg/kg/h
Opioid withdrawal, Day 2
  patients in the treatment arm who achieved 50% reduction in COW score: 5 out of 5
Opioid withdrawal, Day 2, n=5
  optimal dose at 50% of the COW score achieved, Max: 0.7 µg/kg/h
  optimal dose at 50% of the COW score achieved, Mean ± Sd (mean infusion rate): about 0.44 mcg/kg/hr
  optimal dose at 50% of the COW score achieved, Median: 0.4 µg/kg/h
  optimal dose at 50% of the COW score achieved, Min: 0.2 µg/kg/h
Opioid withdrawal, Day 2, n=5, listed as Test
  optimal dose at 50% of the COW score achieved, Mean ± Sd (mean infusion rate): 0.44 ± 0.16 µg/kg/h
